Source: ChEMBL document CHEMBL1201862, “PubChem BioAssay data set” (2004)
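Growth conditions: 96-well plates. Treatment: test compound, 48 hours, 5 concentrations. Analysis: linear interpolation between bracketing concentrations; unreached endpoints set to highest concentration. The concentration for 50% growth inhibition is given as GI50.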 The source made the active and inactive calls. Rule as the data show it: active = GI50 up to about 1.1 µM and inactive = higher.

Key:
Test in all cases: growth of human tumour cells (NCI), 48 h
M14 = system: M14
OVCAR-5 = system: OVCAR-5
SK-MEL-2 = system: SK-MEL-2
K562 = system: K562
UO-31 = system: UO-31
RPMI-8226 = system: RPMI-8226
HT-29 = system: HT-29
IGROV-1 = system: IGROV-1
OVCAR-4 = system: OVCAR-4
SF-268 = system: SF-268
NCI-H226 = system: NCI-H226
SW-620 = system: SW-620
SF-539 = system: SF-539
SK-OV-3 = system: SK-OV-3
SR = system: SR
CAKI-1 = system: CAKI-1
T47D = system: T47D
MDA-MB-231 = system: MDA-MB-231
DU-145 = system: DU-145
Hs-578T = system: Hs-578T

COC[C@@H]1[C@H]2OC(C)(C)O[C@H]2C(=O)N1C(=O)c1ccc(OC)cc1
GI50 (M14): > 100 µM (inactive)
GI50 (OVCAR-5): > 100 µM (inactive)
GI50 (SK-MEL-2): > 100 µM (inactive)
GI50 (K562): > 100 µM (inactive)
GI50 (UO-31): > 100 µM (inactive)
GI50 (RPMI-8226): > 100 µM (inactive)
GI50 (HT-29): > 100 µM (inactive)
GI50 (IGROV-1): > 100 µM (inactive)
GI50 (OVCAR-4): > 100 µM (inactive)
GI50 (SF-268): > 100 µM (inactive)
GI50 (NCI-H226): > 100 µM (inactive)
GI50 (SW-620): > 100 µM (inactive)
GI50 (SF-539): > 100 µM (inactive)
GI50 (SK-OV-3): > 100 µM (inactive)
GI50 (SR): > 100 µM (inactive)
GI50 (CAKI-1): > 100 µM (inactive)

SCCSCCCSCCS
GI50 (M14): 74.6 µM (inactive)
GI50 (T47D): 50.2 µM (inactive)
GI50 (OVCAR-5): > 100 µM (inactive)
GI50 (K562): 92.7 µM (inactive)
GI50 (UO-31): 15.7 µM (inactive)
GI50 (MDA-MB-231): 91.6 µM (inactive)
GI50 (HT-29): > 100 µM (inactive)
GI50 (IGROV-1): 49.2 µM (inactive)
GI50 (OVCAR-4): 14 µM (inactive)
GI50 (SF-268): > 100 µM (inactive)
GI50 (SW-620): > 100 µM (inactive)
GI50 (SF-539): > 100 µM (inactive)
GI50 (DU-145): 56.4 µM (inactive)
GI50 (SK-OV-3): > 100 µM (inactive)
GI50 (SR): 4.16 µM (inactive)

COc1cc(Br)c(CC2NCCc3cc(OC)c(OC)cc32)cc1OC (stereo unspecified)
GI50 (M14): 44.7 µM (inactive)
GI50 (OVCAR-5): 40.9 µM (inactive)
GI50 (SK-MEL-2): > 100 µM (inactive)
GI50 (K562): 32.8 µM (inactive)
GI50 (UO-31): 25.7 µM (inactive)
GI50 (RPMI-8226): 18.8 µM (inactive)
GI50 (HT-29): 34 µM (inactive)
GI50 (OVCAR-4): > 100 µM (inactive)
GI50 (SF-268): > 100 µM (inactive)
GI50 (NCI-H226): 32.8 µM (inactive)
GI50 (SW-620): > 100 µM (inactive)
GI50 (SK-OV-3): > 100 µM (inactive)
GI50 (SR): 50.9 µM (inactive)
GI50 (CAKI-1): 68.7 µM (inactive)

O=S(=O)(SC1=NCCN1)c1cccc2ccccc12
GI50 (M14): 27.6 µM (inactive)
GI50 (OVCAR-5): 22.1 µM (inactive)
GI50 (SK-MEL-2): 23.7 µM (inactive)
GI50 (K562): 24 µM (inactive)
GI50 (UO-31): 35.9 µM (inactive)
GI50 (MDA-MB-231): 22.1 µM (inactive)
GI50 (RPMI-8226): 19.1 µM (inactive)
GI50 (HT-29): 28.7 µM (inactive)
GI50 (IGROV-1): 21.7 µM (inactive)
GI50 (OVCAR-4): 26.2 µM (inactive)
GI50 (NCI-H226): 21.6 µM (inactive)
GI50 (SW-620): 32.7 µM (inactive)
GI50 (SF-539): 20.3 µM (inactive)
GI50 (DU-145): 29.6 µM (inactive)
GI50 (SK-OV-3): 19.5 µM (inactive)
GI50 (SR): > 10 µM (inactive)
GI50 (CAKI-1): 24.9 µM (inactive)

COc1ccc(C2COc3c(ccc(OC)c3OC)C2=O)cc1OC (stereo unspecified)
GI50 (M14): > 100 µM (inactive)
GI50 (K562): > 100 µM (inactive)
GI50 (UO-31): > 100 µM (inactive)
GI50 (RPMI-8226): > 100 µM (inactive)
GI50 (HT-29): > 100 µM (inactive)
GI50 (IGROV-1): > 100 µM (inactive)
GI50 (OVCAR-4): > 100 µM (inactive)
GI50 (SF-268): > 100 µM (inactive)
GI50 (NCI-H226): > 100 µM (inactive)
GI50 (SW-620): > 100 µM (inactive)
GI50 (SF-539): > 100 µM (inactive)
GI50 (SK-OV-3): > 100 µM (inactive)
GI50 (SR): > 100 µM (inactive)
GI50 (CAKI-1): > 100 µM (inactive)

Oc1ccc(N=C2CCC(=C(c3ccccc3)c3ccc(Nc4ccc(O)cc4)cc3)CC2)cc1
GI50 (M14): > 100 µM (inactive)
GI50 (OVCAR-5): > 100 µM (inactive)
GI50 (SK-MEL-2): 77.6 µM (inactive)
GI50 (K562): > 100 µM (inactive)
GI50 (UO-31): 57.4 µM (inactive)
GI50 (MDA-MB-231): 75.5 µM (inactive)
GI50 (RPMI-8226): 46.1 µM (inactive)
GI50 (HT-29): 48.8 µM (inactive)
GI50 (OVCAR-4): 86.5 µM (inactive)
GI50 (SF-268): 50.9 µM (inactive)
GI50 (NCI-H226): > 100 µM (inactive)
GI50 (SW-620): 58.1 µM (inactive)
GI50 (SF-539): 46.1 µM (inactive)
GI50 (DU-145): 60.8 µM (inactive)
GI50 (SK-OV-3): 62.1 µM (inactive)
GI50 (SR): 19.7 µM (inactive)
GI50 (CAKI-1): 35.4 µM (inactive)

CC(C)(C)c1cc(CC2C(=O)c3ccccc3C2=O)cc(C(C)(C)C)c1O
GI50 (M14): 2.69 µM (inactive)
GI50 (OVCAR-5): 11.7 µM (inactive)
GI50 (SK-MEL-2): 3.2 µM (inactive)
GI50 (K562): 3.13 µM (inactive)
GI50 (UO-31): 2.95 µM (inactive)
GI50 (MDA-MB-231): 2.59 µM (inactive)
GI50 (RPMI-8226): 0.764 µM (active)
GI50 (HT-29): 3.13 µM (inactive)
GI50 (IGROV-1): 5.45 µM (inactive)
GI50 (OVCAR-4): 4.08 µM (inactive)
GI50 (SF-268): 3.44 µM (inactive)
GI50 (Hs-578T): 3.94 µM (inactive)
GI50 (SW-620): 2.51 µM (inactive)
GI50 (SF-539): 3.65 µM (inactive)
GI50 (DU-145): 2.45 µM (inactive)
GI50 (SK-OV-3): 2.44 µM (inactive)
GI50 (SR): 2.88 µM (inactive)
GI50 (CAKI-1): 3.22 µM (inactive)

Cc1ccc(-c2c(C#N)c(O)n(NS(=O)(=O)c3ccccc3)c(=O)c2C#N)cc1
GI50 (M14): > 100 µM (inactive)
GI50 (OVCAR-5): > 100 µM (inactive)
GI50 (SK-MEL-2): > 100 µM (inactive)
GI50 (K562): > 100 µM (inactive)
GI50 (MDA-MB-231): > 100 µM (inactive)
GI50 (HT-29): > 100 µM (inactive)
GI50 (IGROV-1): > 100 µM (inactive)
GI50 (OVCAR-4): > 100 µM (inactive)
GI50 (SF-268): > 100 µM (inactive)
GI50 (NCI-H226): > 100 µM (inactive)
GI50 (SW-620): > 100 µM (inactive)
GI50 (SF-539): > 100 µM (inactive)
GI50 (SK-OV-3): > 100 µM (inactive)
GI50 (CAKI-1): > 100 µM (inactive)

COc1ccc(/C=C/c2cc(OC)c(O[Si](C)(C)C(C)(C)C)c(OC)c2)cc1
GI50 (M14): > 100 µM (inactive)
GI50 (OVCAR-5): 64.9 µM (inactive)
GI50 (SK-MEL-2): > 100 µM (inactive)
GI50 (K562): 41.9 µM (inactive)
GI50 (UO-31): > 100 µM (inactive)
GI50 (RPMI-8226): 45 µM (inactive)
GI50 (HT-29): > 100 µM (inactive)
GI50 (IGROV-1): > 100 µM (inactive)
GI50 (OVCAR-4): 49.9 µM (inactive)
GI50 (SF-268): > 100 µM (inactive)
GI50 (NCI-H226): 30.3 µM (inactive)
GI50 (SW-620): > 100 µM (inactive)
GI50 (SF-539): > 100 µM (inactive)
GI50 (SK-OV-3): > 100 µM (inactive)
GI50 (SR): > 10 µM (inactive)
GI50 (CAKI-1): > 100 µM (inactive)
